In US20230219962A1, “PYRAZOLO[4,3-d]PYRIMIDINE DERIVATIVES AND METHODS OF USE THEREOF FOR THE TREATMENT OF CELLULAR PROLIFERATIVE DISORDERS” (Merck Sharp & Dohme LLC, priority 2020, published 2023):
pEC50: −log10 of the molar value.

Key:
[1] = molecular target: T1, hTLR8 (Homo sapiens, UniProt Q9NR97); assay: Human TLR8 Reporter Assay; format: cell-based; conditions: HEK-Blue hTLR8 cells, 16 hours, normalized to tl8-506 (1 μM) and DMSO
T1 construct: host or cells: HEK-Blue hTLR8 cells (HEK293-derived, own knowledge)
T1 sequence (Q9NR97 27-1041): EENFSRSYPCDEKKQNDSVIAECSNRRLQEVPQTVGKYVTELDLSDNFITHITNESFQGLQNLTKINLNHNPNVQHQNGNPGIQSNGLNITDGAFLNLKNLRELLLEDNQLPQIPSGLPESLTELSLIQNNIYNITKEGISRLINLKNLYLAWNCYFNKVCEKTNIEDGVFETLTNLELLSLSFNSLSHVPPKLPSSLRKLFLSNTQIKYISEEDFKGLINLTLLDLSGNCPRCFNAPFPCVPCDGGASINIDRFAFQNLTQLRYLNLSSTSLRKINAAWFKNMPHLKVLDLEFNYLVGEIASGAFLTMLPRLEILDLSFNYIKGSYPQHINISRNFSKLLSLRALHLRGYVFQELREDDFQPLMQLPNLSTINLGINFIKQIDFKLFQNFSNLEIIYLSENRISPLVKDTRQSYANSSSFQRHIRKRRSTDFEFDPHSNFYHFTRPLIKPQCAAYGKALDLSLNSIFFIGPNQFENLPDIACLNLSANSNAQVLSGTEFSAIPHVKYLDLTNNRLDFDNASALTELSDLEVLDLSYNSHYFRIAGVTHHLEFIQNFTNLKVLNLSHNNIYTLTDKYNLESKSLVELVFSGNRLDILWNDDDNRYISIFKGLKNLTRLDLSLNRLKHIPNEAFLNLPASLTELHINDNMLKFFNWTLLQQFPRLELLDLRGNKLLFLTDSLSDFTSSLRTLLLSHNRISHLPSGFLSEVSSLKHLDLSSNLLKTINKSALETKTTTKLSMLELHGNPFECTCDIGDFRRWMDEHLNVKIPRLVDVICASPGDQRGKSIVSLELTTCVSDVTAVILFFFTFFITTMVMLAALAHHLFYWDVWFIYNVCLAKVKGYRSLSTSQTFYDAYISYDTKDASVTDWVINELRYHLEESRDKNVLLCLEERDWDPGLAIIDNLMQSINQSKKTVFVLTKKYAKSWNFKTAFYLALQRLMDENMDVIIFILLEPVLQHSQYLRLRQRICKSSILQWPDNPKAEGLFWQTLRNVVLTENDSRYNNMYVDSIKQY
Description: (§1) HEK-Blue™ hTLR8 cells (Invivogen, San Diego, Calif.) were maintained at 37° C./5% CO2/90% relative humidity in Dulbecco's Modified Eagle's Medium with 10% fetal bovine serum, 100 units/mL penicillin, 100 μg/mL streptomycin, 100 μg/mL normocin, 10 μg/mL blasticidin, and 100 μg/mL zeocin. HEK-Blue™ hTLR8 cells were maintained at 10-90% confluence and used before passage 20. For this assay, test compounds were dissolved in DMSO, and 10-point serial 3-fold dilution series in DMSO were prepared in Echo Qualified 384-well Polypropylene Microplates (Labcyte, San Jose, Calif.). Assay plates (384-well flat, clear bottom, black polystyrene TC-treated microtiter plates; Corning, Corning, N.Y.) were prepared by dispensing 150 nL of test compounds, high control (tl8-506; Invivogen, San Diego, Calif.), and low control (DMSO) by ECHO acoustic dispenser (Labcyte, San Jose Calif.) followed by addition of 5 μL of HEK-Blue™ Detection assay media (Invivogen, San Diego, Calif.). HEK-Blue™ hTLR8 cells in HEK-Blue™ Detection assay media (20,000 cells per well in 45 μL of media) were added to the assay plate and incubated for 16 hours at 37° C./5% CO2/90% relative humidity. For detection, assay plates were removed from the incubator, allowed to cool to ambient temperature, centrifuged at 200×g for 1 minutes, and read with an EnSpire Multimode Plate Reader (Perkin Elmer, Waltham, Mass.) for absorbance at 620 nm. Test compound effects were normalized to the window defined by the controls, tl8-506 (1 μM), and DMSO. Calculated % effects were fit using a 4-parameter algorithm, and EC50 was reported.

[2] = molecular target: T2, hTLR7 (Homo sapiens, UniProt Q9NYK1); assay: Human TLR7 Reporter Assay; format: cell-based; conditions: HEK-Blue hTLR7 cells, 16 hours, normalized to CL097 (6 μM) and DMSO
T2 construct: host or cells: HEK-Blue hTLR7 cells (HEK293-derived, own knowledge)
T2 sequence (Q9NYK1 27-1049): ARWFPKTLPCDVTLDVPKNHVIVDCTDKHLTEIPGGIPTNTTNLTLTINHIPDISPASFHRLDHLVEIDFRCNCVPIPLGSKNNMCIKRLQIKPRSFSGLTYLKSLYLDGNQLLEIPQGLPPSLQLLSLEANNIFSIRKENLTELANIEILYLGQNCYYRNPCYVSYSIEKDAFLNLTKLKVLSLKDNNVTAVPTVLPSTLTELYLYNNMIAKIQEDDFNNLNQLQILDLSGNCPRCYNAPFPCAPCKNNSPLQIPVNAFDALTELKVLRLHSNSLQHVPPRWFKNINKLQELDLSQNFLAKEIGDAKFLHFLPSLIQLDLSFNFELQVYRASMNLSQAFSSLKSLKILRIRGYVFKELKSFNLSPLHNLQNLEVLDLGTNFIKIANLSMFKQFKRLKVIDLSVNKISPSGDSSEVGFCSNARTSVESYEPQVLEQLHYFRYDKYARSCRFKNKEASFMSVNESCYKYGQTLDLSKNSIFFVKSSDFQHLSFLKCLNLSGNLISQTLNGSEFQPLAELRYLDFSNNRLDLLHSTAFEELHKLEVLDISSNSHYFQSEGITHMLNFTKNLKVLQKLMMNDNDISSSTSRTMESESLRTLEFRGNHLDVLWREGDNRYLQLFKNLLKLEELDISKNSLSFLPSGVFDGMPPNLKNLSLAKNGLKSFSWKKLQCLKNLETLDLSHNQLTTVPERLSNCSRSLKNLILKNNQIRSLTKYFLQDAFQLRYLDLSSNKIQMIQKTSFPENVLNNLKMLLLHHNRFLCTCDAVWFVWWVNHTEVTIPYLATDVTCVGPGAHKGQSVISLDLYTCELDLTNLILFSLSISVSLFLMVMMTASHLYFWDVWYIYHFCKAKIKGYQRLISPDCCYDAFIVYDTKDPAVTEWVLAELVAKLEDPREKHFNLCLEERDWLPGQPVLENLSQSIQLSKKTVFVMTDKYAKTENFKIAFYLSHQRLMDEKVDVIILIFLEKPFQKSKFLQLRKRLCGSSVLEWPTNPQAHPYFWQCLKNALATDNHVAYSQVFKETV
Description: as §1, with “hTLR7” for “hTLR8”, “(CL097;” for “(tl8-506;”, “CL097 (6” for “tl8-506 (1”

Compound | pEC50 [1] | pEC50 [2]
CCCCNc1nc(N)nc2cn(Cc3scnc3C)nc12 [Compound 181] | 5.82 | 6.77
CCCCNc1nc(N)nc2cn(Cc3ccc(CN4CCN(C(=O)CCN5C(=O)C=CC5=O)CC4)cc3)nc12 [Compound 119] | 4.65 | 5.18
CCCCNc1nc(N)nc2cn(Cc3ccc(N4CCN(C(=O)C5CCC(CN6C(=O)C=CC6=O)CC5)CC4)cc3OC)nc12 (centres unmarked) [Compound 68] | 5.44 | 6.72
CCCCNc1nc(N)nc2cn(Cc3c(F)cccc3F)nc12 [Compound 41] | 6.15 | 7.16
CCCCNc1nc(N)nc2cn(Cc3nc(CNC)oc3C)nc12 [Compound 165] | 5.33 | 5.87
CCCCNc1nc(N)nc2cn(Cc3ncoc3C)nc12 [Compound 121] | 5.63 | 6.31
CCCCNc1nc(N)nc2cn(Cc3ncc(N4CCNCC4)cc3OC)nc12 [Compound 99] | 5.86 | 6.20
CCCCNc1nc(N)nc2cn(Cc3ccc(C4CCCN4)cc3)nc12 (centres unmarked) [Compound 205] | 6.28 | 6.39
CCCCNc1nc(N)nc2cn(Cc3nc(Br)oc3C)nc12 [Compound 160] | 5.08 | 6.43
CCCCNc1nc(N)nc2cn(Cc3nnc(C)o3)nc12 [Compound 172] | 5.40 | 5.55
CCCCNc1nc(N)nc2cn(Cc3ccc(C4CCNC4)cc3)nc12 (centres unmarked) [Compound 196] | 6.12 | 6.34
CCCCNc1nc(N)nc2cn(Cc3cncn3C3CC3)nc12 [Compound 182] | 5.47 | 6.03
CCCCNc1nc(N)nc2cn(Cc3c(OC)ccc(CNC(=O)C4CCC(CN5C(=O)C=CC5=O)CC4)c3OC)nc12 (centres unmarked) [Compound 81] |  | < 4.52

More lines, now with the values ahead:

pEC50 [1] | pEC50 [2] | Compound
5.36 | 5.95 | COc1cccc(OC)c1Cn1cc2nc(N)nc(NC(C)C)c2n1 [Compound 27]
6.48 | 7.14 | CCCCNc1nc(N)nc2cn(Cc3c(OC)cccc3OC)nc12 [Compound 5]
6.69 | 7.72 | CCC[C@@H](C)Nc1nc(N)nc2cn(Cc3c(OC)cccc3OC)nc12 [Compound 113]
< 4.52 | 5.55 | COc1cccc(OC)c1Cn1cc2nc(N)nc(NCCC(C)O)c2n1 (centres unmarked) [Compound 52]
6.65 | 6.32 | CCCCNc1nc(N)nc2cn(Cc3c(OC)cc(C(C)N)cc3OC)nc12 (centres unmarked) [Compound 215]
6.14 | 5.52 | CCCCNc1nc(N)nc2cn(Cc3c(OC)ccc(CN)c3OC)nc12 [Compound 76]
5.43 | 6.26 | CCCCNc1nc(N)nc2cn(Cc3ncc(CN4C(=O)C=CC4=O)cc3OC)nc12 [Compound 110]
6.82 | 7.11 | C=CCN(C)Cc1ccc(Cn2cc3nc(N)nc(N[C@H](CO)CCC)c3n2)c(OC)c1 [Compound 156]
6.94 | 7.53 | CCC[C@@H](CO)Nc1nc(N)nc2cn(Cc3c(OC)cccc3OC)nc12 [Compound 108]
5.58 | 6.42 | CCCCNc1nc(N)nc2cn(Cc3c(OC)cccc3OCCCC(=O)OC)nc12 [Compound 206]
< 4.52 | 5.61 | COc1ccccc1Cn1cc2nc(N)nc(N3CCC(CO)C3)c2n1 (centres unmarked) [Compound 24]
6.14 | 6.99 | CCC[C@H](C)Nc1nc(N)nc2cn(Cc3c(OC)cc(Br)cc3OC)nc12 [Compound 184]
5.52 | 6.67 | CCC[C@H](CO)Nc1nc(N)nc2cn(Cc3c(OC)cccc3OC)nc12 [Compound 107]
6.13 | 6.62 | CCCCNc1nc(N)nc2cn(Cc3c(C)cccc3OC)nc12 [Compound 39]
6.38 | 6.39 | CCCCNc1nc(N)nc2cn(Cc3c(OC)cc(CN(C)CCCN)cc3OC)nc12 [Compound 141]
< 4.52 | 5.51 | CCCCNc1nc(N)nc2cn(CCc3ccccc3OC)nc12 [Compound 36]
5.48 | 5.91 | CCCCNc1nc(N)nc2cn(Cc3ccc(CN4CC(CN5C(=O)C=CC5=O)C4)cc3OC)nc12 [Compound 127]
7.11 | 6.44 | CCCNC(C)c1ccc(Cn2cc3nc(N)nc(N[C@H](CO)CCC)c3n2)c(OC)c1 (some centres unmarked) [Compound 232]
6.20 | 7.02 | CCCCNc1nc(N)nc2cn(Cc3ccc(CCO)cc3OC)nc12 [Compound 128]
6.36 | 6.46 | CCCCNc1nc(N)nc2cn(Cc3ccc(CN4CCNCC4)cc3OC)nc12 [Compound 61]
